Measured values published in patent US7803783B2, “Use of WNT inhibitors to augment therapeutic index of chemotherapy” (The Board of Trustees of the Leland Stanford Junior …, priority 2002, dated 2010).

Experiments:
[1] = tested on: human bone marrow HSCs; assay: Proliferation of human bone marrow HSCs with soluble Wnt3a; assay type: cell-based; settings: absence of any other growth factor
[2] = tested on: wild type mouse bone marrow HSCs; assay: In vitro HSC proliferation assay with purified Wnt3A; assay type: cell-based
Method: FIGS. 5A-5D. Wild Type HSCs proliferate to purified Wnt3A. Purified wild type mouse bone marrow HSCs were sorted by FACS and plated at 5 or 10 cells/well into 60 well Terasaki plates. Cells were incubated in X-vivo 15 (Bio Whittaker), 10% FBS, 5×10^−5M 2-Mercaptoethanol, and 1×10^−4M random methylated beta-cyclodextrin (CTD, Inc.) in the presence of either purified Wnt3A (at approx. 100 ng/ml) plus SLF (10 ng/ml) or SLF (10 ng/ml) alone, as a control. (SLF dose required ranged from 7.5 ng/ml-100 ng/ml depending on mouse strain used). Cell growth was monitored over a period of 7-9 days in culture, and is shown as total cell response (A) and the average frequency of responding wells (B) representative of over 9 independent experiments. To determine phenotypic characteristics, cells were plated in bulk (3500 cells) in 96 well plates and incubated in the presence of purified or unpurified Wnt3A.
Purified Wnt protein can regulate HSC self-renewal in the same manner as β-catenin in BCL-2 transgenic HSCs. To ensure that this response was not dependent on BCL-2 over-expression, we specifically tested whether wild type HSCs respond in a similar manner to purified Wnt3A as well. Over a period of days, HSCs plated at 1-20 cells per well, responded extremely robustly to Wnt3A in contrast to control conditions (e.g. 184 cells versus 0 when plated at 5 cells/well) (FIG. 5). The average frequency of cells that responded to Wnt3A over 3 independent experiments was 17-fold more than the proliferation to control conditions (limiting dose of SLF) when plated at 10 cells/well. […] Furthermore, the phenotypic characteristics of HSCs treated with purified or unpurified Wnt3A were dramatically different. […] Furthermore, a significant fraction of the lineage negative population expressed c-Kit and Sca-1 consistent with a HSC phenotype (D).
In vitro HSC proliferation assays. Freshly purified or virally transduced HSCs were plated at 1 to 20 cells per well in Terasaki plates. Cells were sorted into wells containing serum-free medium (X-vivo15, BioWhittaker) supplemented with 5×10^−5 M 2-mercaptoethanol and the indicated growth factors. Proliferation was monitored by counting the number of cells in each well at defined intervals. For longer-term cultures, transduced HSCs were plated in 96-well plates in the absence or presence of SLF (1 ng ml^−1), and the number of cells generated was monitored by cell counting at defined intervals. For inhibition of growth by CRD or axin, cells were cultured in the presence of mitogenic factors (SLF (30 ng ml^−1), Flt-3L (30 ng ml^−1), interleukin-6 (10 ng ml^−1)).

[3] = tested on: LEF-1/TCF reporter (TOP-dGFP); assay: Lentiviral LEF-1/TCF reporter assay in HSCs in vitro; assay type: cell-based, mouse; settings: HSCs stimulated with Wnt3a about 100 ng/ml
[4] = tested on: HSCs; assay: Transplantation of Wnt3A-treated HSCs into lethally irradiated recipient mice; assay type: in vivo, mouse
Method: To test whether the cells treated with purified Wnt3A underwent self-renewal functionally, purified HSCs were plated as 1 cell or as 10 cells, treated with Wnt3A and each well containing proliferating cells transplanted individually into lethally irradiated recipient mice along with 300,000 Sca-1^− Bone Marrow cells (A). […] Since the empirically observed frequency of reconstitution of resting HSCs is ˜10% and of cycling HSCs ˜2%, the observed frequency of reconstitution of 100% for 1 plated cells is consistent with Wnt3A inducing a 10- to 50-fold increase in HSC activity, a range similar to that seen with BCL-2 transgenic HSCs.
In vivo analysis of HSC function.

## Wnt3a
[1]
  proliferation of highly purified human bone marrow HSCs: induces proliferation
[2]; 10 cells/well, 3 independent experiments, control limiting dose of SLF
  average frequency of cells that responded relative to control conditions: 17 fold
[2]; after 7 days in culture
  lineage marker phenotype of treated HSCs: negative for lineage markers
[2]; plated at 5 cells/well, control 0
  total cell response: 184 cells
[2]; singly plated HSCs, presence of Wnt3a
  numbers of progeny generated by singly plated HSCs compared with control conditions: six-fold
[3]
  TOP-dGFP reporter activity (GFP expression): significant reporter activity
[4]; 1 plated cell treated with Wnt3A
  frequency of reconstitution: 100%
[4]; wells plated with 10 cells or 5 cells
  reconstitution efficiency: 100%
